≈ marks a conversion by molar mass, not a printed value. Where only a bound is given, the exact number is not on record here.

The subject of assay [1] is Bacillus subtilis NRRL B-558. Briefly: MIC, standard serial dilution method. It is filed as cell-based. The following applies: B. subtilis NRRL B-558, nutrient agar, 37°C, 18 hours. How it is done:
(§1) The minimum inhibitory concentrations (mcg/ml) of 6'-amino-6'-deoxylividomycin B, 6'-deoxy-6'-methylaminolividomycin B and 6'-deoxy-6'-(2-hydroxyethylamino) lividomycin B against various microorganisms were determined according to a standard serial dilution method using nutrient agar incubation medium at 37°C, the estimation being effected after 18 hours incubation except for Mycobacterium smegmalis ATCC 607, in which the estimation being effected after 48 hours incubation. The minimum inhibitory concentrations (mcg/ml) of neomycin and lividomycin B were also determined in the same manner they also for comparison.

The test system of assay [2] is Escherichia coli K-12 J 5 R 11-2. Briefly: MIC, standard serial dilution method. The class given is cell-based. The following applies: E. coli K-12 J 5 R 11-2, nutrient agar, 37°C, 18 hours. How it is done: as §1
The subject of assay [3] is Escherichia coli K-12 LA 290 R 56. Briefly: MIC, standard serial dilution method. The class given is cell-based. As to the method:
as §1

For assay [4], the system named is Escherichia coli K-12 LA 290 R 64. Nature of the assay: MIC, standard serial dilution method. The class given is cell-based. Particulars: E. coli K-12 LA 290 R 64; nutrient agar, 37°C, 18 hours. As to the method: as §1
For assay [5], the system named is Escherichia coli K-12 ML 1410 R 81. Briefly: MIC, standard serial dilution method. It is filed as cell-based. As to the method: as §1
The test system of assay [6] is Escherichia coli K-12 ML 1410. Briefly: MIC, standard serial dilution method. It is filed as cell-based. How it is done:
as §1

In assay [7] the test system is Escherichia coli K-12 ML 1630. Nature of the assay: MIC, standard serial dilution method. The class given is cell-based. The following applies: E. coli K-12 ML 1630, nutrient agar, 37°C, 18 hours. How it is done: as §1
In assay [8] the test system is Escherichia coli K-12 R-5. Briefly: MIC, standard serial dilution method. The class given is cell-based. Particulars: E. coli K-12 R-5, nutrient agar, 37°C, 18 hours. As to the method:
as §1

Assay [9] relates to Escherichia coli K-12 W 677. Briefly: MIC, standard serial dilution method. The class given is cell-based. Particulars: E. coli K-12 W 677, nutrient agar, 37°C, 18 hours. How it is done:
as §1

For the next assay, the system named is Escherichia coli K-12. Nature of the assay: MIC, standard serial dilution method. The following applies: E. coli K-12, nutrient agar, 37°C, 18 hours. It is filed as cell-based. How it is done:
as §1

The test system of another assay is Escherichia coli NIHJ. Briefly: MIC, standard serial dilution method. It is filed as cell-based. Particulars: E. coli NIHJ, nutrient agar, 37°C, 18 hours. How it is done: as §1
Assay [10] deals with Klebsiella pneumoniae PCI 602. Nature of the assay: MIC, standard serial dilution method. It is filed as cell-based. Particulars: K. pneumoniae PCI 602, nutrient agar, 37°C, 18 hours. As to the method: as §1
Assay [11] relates to Klebsiella pneumoniae type 22 No. 3038. Nature of the assay: MIC, standard serial dilution method. It is filed as cell-based. How it is done:
as §1

The subject of assay [12] is Mycobacterium smegmatis ATCC 607. Nature of the assay: MIC, standard serial dilution method. The class given is cell-based. Particulars: 37°C, 48 hours. As to the method: as §1
A further assay deals with Proteus rettgeri GN 311. Nature of the assay: MIC, standard serial dilution method. Particulars: 37°C, 18 hours. The class given is cell-based. As to the method:
as §1

The subject of the next assay is Proteus rettgeri GN 466. Nature of the assay: MIC, standard serial dilution method. It is filed as cell-based. Particulars: Proteus rettgeri GN 466, nutrient agar, 37°C, 18 hours. How it is done: as §1
The test system of assay [13] is Pseudomonas aeruginosa 99. Nature of the assay: MIC, standard serial dilution method. The class given is cell-based. How it is done: as §1
Assay [14] concerns Pseudomonas aeruginosa A 3. Nature of the assay: MIC, standard serial dilution method. The class given is cell-based. As to the method:
as §1

Assay [15] has as its system Pseudomonas aeruginosa No.12. Briefly: MIC, standard serial dilution method. It is filed as cell-based. The following applies: P. aeruginosa No.12, nutrient agar, 37°C, 18 hours. How it is done:
as §1

In assay [16] the test system is Pseudomonas aeruginosa TI-13-1. Nature of the assay: MIC, standard serial dilution method. The class given is cell-based. Particulars: P. aeruginosa TI-13-1, nutrient agar, 37°C, 18 hours. As to the method: as §1
Another assay has as its system Salmonella typhosa T-63. Briefly: MIC, standard serial dilution method. The class given is cell-based. How it is done: as §1
Another assay relates to Sarcina lutea PCI 1001. Nature of the assay: MIC, standard serial dilution method. The class given is cell-based. Particulars: 37°C, 18 hours. How it is done: as §1
Assay [17] relates to Staphylococcus aureus FDA 209 P. Nature of the assay: MIC, standard serial dilution method. It is filed as cell-based. Particulars: S. aureus FDA 209 P, nutrient agar, 37°C, 18 hours. As to the method:
as §1

Assay [18] has as its system Escherichia coli K-12 JR 66/W 677. Briefly: MIC, standard serial dilution method. It is filed as cell-based. As to the method: as §1
(§2) In the above table, the mark * denotes the strain is a drug-resistant
(§3) strain of patient-origin.

In assay [19] the test system is Escherichia coli K-12 LA 290 R 55. Briefly: MIC, standard serial dilution method. It is filed as cell-based. How it is done:
as §1, §2, §3

Assay [20] has as its system Escherichia coli K-12 ML 1629. Nature of the assay: MIC, standard serial dilution method. The class given is cell-based. Particulars: E. coli K-12 ML 1629, drug-resistant strain of patient-origin, nutrient agar, 37°C, 18 hours. As to the method: as §1, §2, §3
The subject of assay [21] is Pseudomonas aeruginosa GN 315. Nature of the assay: MIC, standard serial dilution method. The class given is cell-based. Particulars: P. aeruginosa GN 315, drug-resistant strain of patient-origin, nutrient agar, 37°C, 18 hours. How it is done:
as §1, §2, §3

In assay [22] the test system is kanamycin-resistant strains. Particulars: in words; cited from earlier work.
The mark [23] stands for this setting: Escherichia coli, 18 h, read-out: Minimal inhibitory concentration.

Consider `NC[C@@H]1O[C@H](O[C@H]2[C@@H](O)[C@H](O[C@@H]3[C@@H](O)[C@H](N)C[C@H](N)[C@H]3O[C@H]3O[C@H](CN)[C@@H](O)[C@H](O)[C@H]3N)O[C@@H]2CO)[C@H](N)[C@@H](O)[C@@H]1O` [NM, neomycin, reference compound], for which the Minimal inhibitory concentration is below 0.20 µg/mL in assay [1]; 50 µg/mL (≈ 81.3 µM) in [2]; 0.78 µg/mL (≈ 1.27 µM) in [3] (E. coli K-12 LA 290 R 56, nutrient agar, 37°C, 18 hours); 0.39 µg/mL (≈ 0.635 µM) in assay [4]; above 100 µg/mL in assay [5] (E. coli K-12 ML 1410 R 81, nutrient agar, 37°C, 18 hours); 6.25 µg/mL (≈ 10.2 µM) in assay [6] (E. coli K-12 ML 1410, nutrient agar, 37°C, 18 hours). Also, the Minimal inhibitory concentration in assay [7] is above 100 µg/mL; in assay [8], 0.78 µg/mL (≈ 1.27 µM); in assay [9], 0.78 µg/mL (≈ 1.27 µM); with Escherichia coli K-12, 1.56 µg/mL (≈ 2.54 µM); in the assay with Escherichia coli NIHJ, 1.56 µg/mL (≈ 2.54 µM); in assay [10], 0.78 µg/mL (≈ 1.27 µM). Besides, the Minimal inhibitory concentration in assay [11] (K. pneumoniae type 22 No. 3038, nutrient agar, 37°C, 18 hours) was above 100 µg/mL; in [12] (nutrient agar) it was below 0.20 µg/mL; in the assay with Proteus rettgeri GN 311 (nutrient agar) it was 50 µg/mL (≈ 81.3 µM); in the assay on Proteus rettgeri GN 466 it was 3.12 µg/mL (≈ 5.08 µM); in [13] (P. aeruginosa 99, nutrient agar, 37°C, 18 hours), 50 µg/mL (≈ 81.3 µM); in [14] (P. aeruginosa A 3, nutrient agar, 37°C, 18 hours), 25 µg/mL (≈ 40.7 µM). Moreover, the Minimal inhibitory concentration in [15] was 3.12 µg/mL (≈ 5.08 µM); in [16] it was above 100 µg/mL; in the assay with Salmonella typhosa T-63 (Salmonella typhosa T-63, nutrient agar, 37°C, 18 hours), 0.78 µg/mL (≈ 1.27 µM); in the assay with Sarcina lutea PCI 1001 (nutrient agar), 0.78 µg/mL (≈ 1.27 µM); in [17], 0.39 µg/mL (≈ 0.635 µM); in assay [18] (E. coli K-12 JR 66/W 677, drug-resistant strain of patient-origin, nutrient agar, 37°C, 18 hours), above 100 µg/mL. Besides, the Minimal inhibitory concentration in assay [19] (E. coli K-12 LA 290 R 55, drug-resistant strain of patient-origin, nutrient agar, 37°C, 18 hours) came out at 0.78 µg/mL (≈ 1.27 µM); in assay [20] it was 100 µg/mL (≈ 163 µM); in assay [21] it was 100 µg/mL (≈ 163 µM).

As to `NCC1OC(OC2C(N)CC(N)C(OC3OC(CO)C(O)C(N)C3O)C2O)C(O)CC1O` (centres unmarked) [3'-Deoxykananmycin, 3'-deoxykanamycin], the “activity against kanamycin-resistant strains” value (“activity” for short) in assay [22] is recorded as “actually effective”.

For `NC[C@@H]1CC[C@@H](N)[C@@H](O[C@H]2[C@H](O)[C@@H](O)[C@H](N)C[C@@H]2N)O1` [3', 4'-dideoxyneamine], in assay [22], the “activity” value is given as “actually effective”.

For `NCC1CCC(N)C(OC2C(N)CC(N)C(OC3OC(CO)C(O)C(N)C3O)C2O)O1` (centres unmarked) [3', 4'-dideoxykanamycin B], the “activity” value in [22] was “actually effective”.

As to `NC[C@@H]1O[C@H](O[C@H]2[C@@H](O)[C@H](O[C@@H]3[C@@H](O)[C@H](N)C[C@H](N)[C@H]3O[C@H]3O[C@H](CN)[C@@H](O)C[C@H]3N)O[C@@H]2CO)[C@H](N)[C@@H](O)[C@@H]1O` [ALVB, 6'-amino-6'-deoxylividomycin B], the MIC in assay [1] (Bacillus subtilis, NRRLB558, read-out: Minimal inhibitory concentration) is below 0.2 µg/mL; in assay [2] (Escherichia coli, K12J5R112, read-out: Minimal inhibitory concentration) it was 25 µg/mL (≈ 41.8 µM); in [3] (setting [23]), 0.39 µg/mL (≈ 0.651 µM); in [5] (setting [23]), 100 µg/mL (≈ 167 µM); in assay [6] (Escherichia coli, K12ML1410, 18 h, read-out: Minimal inhibitory concentration) it was 1.56 µg/mL (≈ 2.61 µM); in [7] (Escherichia coli, K12ML1630, read-out: Minimal inhibitory concentration), 50 µg/mL (≈ 83.5 µM). The MIC in assay [8] (Escherichia coli, K12R5, read-out: Minimal inhibitory concentration) was 0.39 µg/mL (≈ 0.651 µM); in [9] (Escherichia coli, K12W677, read-out: Minimal inhibitory concentration) it was 0.78 µg/mL (≈ 1.3 µM); in the assay on Escherichia coli K-12 (Escherichia coli, K12, read-out: Minimal inhibitory concentration), 0.78 µg/mL (≈ 1.3 µM); with Escherichia coli NIHJ (Escherichia coli, read-out: Minimal inhibitory concentration), 0.78 µg/mL (≈ 1.3 µM); in assay [10] (Klebsiella pneumoniae, PCI602, read-out: Minimal inhibitory concentration), 0.78 µg/mL (≈ 1.3 µM); in [11] (Klebsiella pneumoniae, TYPE22NO.3038, 18 h, read-out: Minimal inhibitory concentration), 1.56 µg/mL (≈ 2.61 µM). Besides, the MIC in [12] (Mycolicibacterium smegmatis, ATCC607, nutrient agar, read-out: Minimal inhibitory concentration) was below 0.2 µg/mL; in the assay on Proteus rettgeri GN 311 (Providencia rettgeri, GN311, nutrient agar, read-out: Minimal inhibitory concentration) it was 25 µg/mL (≈ 41.8 µM); in the assay with Proteus rettgeri GN 466 (Providencia rettgeri, GN466, read-out: Minimal inhibitory concentration), 3.12 µg/mL (≈ 5.21 µM); in assay [13] (Pseudomonas aeruginosa, 99, 18 h, read-out: Minimal inhibitory concentration), 1.56 µg/mL (≈ 2.61 µM); in assay [14] (Pseudomonas aeruginosa, A3, 18 h, read-out: Minimal inhibitory concentration), 1.56 µg/mL (≈ 2.61 µM); in [15] (Pseudomonas aeruginosa, read-out: Minimal inhibitory concentration) it was 0.78 µg/mL (≈ 1.3 µM). Further, the MIC was 100 µg/mL (≈ 167 µM) in [16] (Pseudomonas aeruginosa, TI131, read-out: Minimal inhibitory concentration); 0.39 µg/mL (≈ 0.651 µM) in the assay on Salmonella typhosa T-63 (Salmonella enterica, TYPHOSA, 18 h, read-out: Minimal inhibitory concentration); 0.78 µg/mL (≈ 1.3 µM) in the assay on Sarcina lutea PCI 1001 (Micrococcus luteus, PCI1001, nutrient agar, read-out: Minimal inhibitory concentration); below 0.2 µg/mL in [17] (Staphylococcus aureus, FDA209, read-out: Minimal inhibitory concentration); 1.56 µg/mL (≈ 2.61 µM) in assay [18] (setting [23]); 1.56 µg/mL (≈ 2.61 µM) in [19] (setting [23]). Further, the MIC in assay [20] (Escherichia coli, K12ML1629, read-out: Minimal inhibitory concentration) was determined as 50 µg/mL (≈ 83.5 µM); in assay [21] (Pseudomonas aeruginosa, GN315, read-out: Minimal inhibitory concentration) it was 25 µg/mL (≈ 41.8 µM).

The values are drawn from patent US3956274A, “New compound 6'-deoxy-'-substituted or unsubstituted amino-lividomycins and the production thereof” (Zaidan Hojin Biseibutsu Kagaku Kenkyu Kai, priority 1973, dated 1976).
